# Assays:
# Plasminogen [1] = target: T1, Plasminogen (Homo sapiens, UniProt P00747); experiment: Inhibitory activity of compound was evaluated against plasmin
# [2] = Inhibitory activity of compound was evaluated against urokinase-S-2444
# [3] = Inhibitory activity of compound was evaluated against plasma kallikrein-S-2302; assay type: cell-free
# [4] = Inhibitory activity of compound was evaluated against thrombin-S-2238
# [5] = Inhibitory activity of compound was evaluated against plasmin-fibrin (Fn)
# [6] = Inhibitory activity of compound was evaluated against thrombin-fibrinogen (Fg)
# [7] = Inhibitory activity of compound was evaluated against plasma kallikrein-S-2302; not detectable; assay type: cell-free
# [8] = Inhibitory activity of compound was evaluated against thrombin-fibrinogen (Fg); not detectable
# [9] = Inhibitory activity of compound was evaluated against thrombin-S-2238; not detectable
# Plasminogen [10] = target: T1, Plasminogen; experiment: Inhibitory activity of compound was evaluated against plasmin; not detectable
# [11] = Inhibitory activity of compound was evaluated against urokinase-S-2444; not detectable
# [12] = Inhibitory activity of compound was evaluated against plasmin-fibrin (Fn); not detectable
# T1 sequence (P00747 97-580 limits assumed): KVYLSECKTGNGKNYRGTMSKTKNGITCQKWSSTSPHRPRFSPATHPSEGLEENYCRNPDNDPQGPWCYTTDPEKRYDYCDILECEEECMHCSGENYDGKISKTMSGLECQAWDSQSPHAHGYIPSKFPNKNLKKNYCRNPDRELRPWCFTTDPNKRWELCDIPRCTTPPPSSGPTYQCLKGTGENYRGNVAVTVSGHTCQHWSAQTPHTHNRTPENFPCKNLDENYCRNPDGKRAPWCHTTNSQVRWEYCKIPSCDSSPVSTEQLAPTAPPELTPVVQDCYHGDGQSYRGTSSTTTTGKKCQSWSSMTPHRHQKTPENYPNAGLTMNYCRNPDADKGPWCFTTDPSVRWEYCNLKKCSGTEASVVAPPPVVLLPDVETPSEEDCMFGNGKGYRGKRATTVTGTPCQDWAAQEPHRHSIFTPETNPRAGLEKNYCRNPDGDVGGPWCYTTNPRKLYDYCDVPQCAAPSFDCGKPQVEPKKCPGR
# T1 sequence (P00747 581-810 limits assumed): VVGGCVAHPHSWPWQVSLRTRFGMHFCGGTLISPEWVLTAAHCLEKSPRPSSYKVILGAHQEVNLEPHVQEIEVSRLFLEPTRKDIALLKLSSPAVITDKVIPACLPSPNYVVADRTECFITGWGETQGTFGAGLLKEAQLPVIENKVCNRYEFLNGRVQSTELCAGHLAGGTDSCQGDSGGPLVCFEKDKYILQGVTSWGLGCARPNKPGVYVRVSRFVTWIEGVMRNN
IC50 (Plasminogen [1]) [nM],IC50 ([2]; read-out: IC50) [µM],IC50 [3] [nM],IC50 [4] [µM],IC50 [5] [nM],IC50 [6] [µM],Compound,further results
2500,> 50,45000,> 50,560,> 10,CCCCCCCCOC(=O)[C@H]1CC[C@H](CNC(=O)C(Cc2ccc(OC(=O)OCc3ccccc3Br)cc2)NC(=O)[C@H]2CC[C@H](CN)CC2)CC1 (some centres not stated),
230,,370,,,,CC(=O)c1ccc(NC(=O)C(Cc2ccc(OC(=O)OCc3ccccc3Br)cc2)NC(=O)[C@H]2CC[C@H](CN)CC2)cc1 (some centres not stated),
,54,,,390,,Cc1nc(C)c(CCCNC(=O)C(Cc2ccc(OC(=O)OCc3ccccc3Br)cc2)NC(=O)[C@H]2CC[C@H](CN)CC2)nc1O (some centres not stated),IC50 ([7]; read-out: IC50): 36 µM; IC50 ([8]; read-out: IC50): > 250 µM; IC50 ([9]; read-out: IC50): 490 µM; IC50 (Plasminogen [10]; read-out: IC50): 740 nM
800,> 50,16000,> 50,230,> 25,CCCCCCCCNC(=O)C(Cc1ccc(OC(=O)OCc2ccccc2Br)cc1)NC(=O)[C@H]1CC[C@H](CN)CC1 (some centres not stated),
460,260,2100,70,56,> 100,CC(C)CCNC(=O)C(Cc1ccc(OC(=O)OCc2ccccc2Br)cc1)NC(=O)[C@H]1CC[C@H](CN)CC1 (some centres not stated),
530,5.3,30000,> 400,360,> 100,CCCCCCCCNC(=O)C(Cc1ccc(OCc2ccncc2)cc1)NC(=O)[C@H]1CC[C@H](CN)CC1 (some centres not stated),
32000,650,710,> 1000,29000,> 1000,NC[C@H]1CC[C@H](C(=O)NC(Cc2ccc(Oc3ncccn3)cc2)C(=O)Nc2cccc(C(=O)O)c2)CC1 (some centres not stated),
620000,350,1300,> 1000,350000,> 1000,NC[C@H]1CC[C@H](C(=O)NC(Cc2ccccc2)C(=O)Nc2ccc(CC(=O)O)cc2)CC1 (some centres not stated),
,,,,,,Cc1nc(Cc2ccccc2)c(O)nc1Cc1ccccc1,IC50 [11]: Not detectable; IC50 [7]: Not detectable; IC50 [8]: Not detectable; IC50 [12]: Not detectable; IC50 [9]: Not detectable; IC50 (Plasminogen [10]): Not detectable
,,,,,,Cc1nc(Cc2ccccc2)c(O)nc1CCCCNC(=O)c1cccs1,IC50 [11]: Not detectable; IC50 [7]: Not detectable; IC50 [8]: Not detectable; IC50 [12]: Not detectable; IC50 [9]: Not detectable; IC50 (Plasminogen [10]): Not detectable
,,,,,,Cc1nc(CCC(=O)OCc2ccccc2)c(O)nc1CCCCNC(=O)OCc1ccccc1,IC50 [2]: Not detectable; IC50 [7]: Not detectable; IC50 [8]: Not detectable; IC50 [12]: Not detectable; IC50 [9]: Not detectable; IC50 (Plasminogen [10]): Not detectable
